Laboratory results as given in paper PMC4791960 (European journal of medicinal chemistry, 2011).

Assays:
AChBP from Ac = test: Dissociation constants with AChBP from Aplysia californica; assay type: binding; conditions: compound 2 vs compound 3 (OH to OCH3)
AChBP from Bt = test: Dissociation constants with AChBP from Bulinus truncatus; assay type: binding; conditions: compound 2 vs compound 3 (OH to OCH3)
α7 nAChR = α7 nAChR (Rattus norvegicus, UniProt Q05941); test: [3H]-methyllycaconitine competition binding on rat hippocampal membranes; conditions: for Ki: read-out: α7 Ki, [3H]-methyllycaconitine, rat hippocampal membranes; for interaction with α7 nAChR: in words
α4β2 nAChR = α4β2 nAChR (Rattus norvegicus, UniProt P09483+P12390); test: [3H]-epibatidine competition binding on rat cortical membranes; conditions: tested at 5 μM, ± standard error
[1] = target: α3β4 ganglion-type nicotinic receptors (Homo sapiens, UniProt P30926+P32297); test: [3H]-epibatidine competition binding on SH-SY5Y cellular membranes
rat α7 nAChR = rat α7 nAChR (Rattus norvegicus, UniProt Q05941); test: Patch-clamp electrophysiology in rat α7 nAChR; assay type: cell-based
[2] = target: α1βγδ muscle-type nicotinic receptors (Homo sapiens, UniProt P02708+P07510+Q07001); test: [3H]-epibatidine competition binding on TE-671 cellular membranes; conditions: tested at 5 μM, ± standard error

Molecule | Ki (α7 nAChR) | α4β2 percent inhibition of control radioligand binding (α4β2 nAChR) | interaction with α7 nAChR (α7 nAChR) | further results
COc1ccc(/C=C2\CCCN=C2c2cccnc2)c(OC)c1 [Compound 2, 3-(2,4-dimethoxybenzilidene)-anabaseine] |  |  |  | loss in affinity vs compound 3, Ac (AChBP from Ac): 110 fold; decrease in Kd value (affinity) vs compound 3, Bt (AChBP from Bt): 2.5 fold
5-(2-Furyl)spiro[1,3-dihydro-1,4-diazepine-2,3′-quinuclidine]-7-ol [Compound 2g] | 0.15 µM | 14 ± 3% |  | 
O=C1NCC2(CN3CCC2CC3)NC(=O)C1c1ccccc1 (stereo not shown) [Compound 2i, 6-Phenylspiro[1,4-diazepane-2,3′-quinuclidine]-5,7-dione] |  |  | do not demonstrate any interaction | 
5-(2-Methoxyphenyl)spiro[1,3-dihydro-1,4-diazepine-2,3′-quinuclidine]-7-ol [Compound 2b] | 0.11 µM | 7 ± 1% |  | 
COc1cc(O)ccc1/C=C1\CCCN=C1c1cccnc1 [Compound 3, 2-Methoxy-4-OH benzylidene anabaseine, reference compound] |  |  |  | inhibition at 5 µM ([1]; read-out: α3β4 percent inhibition of control radioligand binding): 75 ± 1%
C1=NCC2(CN3CCC2CC3)NC=C1c1ccccc1 (stereo not shown) [Compound 2h, 6-phenylspiro[1,3-dihydro-1,4-diazepine-2,3′-quinuclidine]] |  |  | do not demonstrate any interaction | 
c1ccc(C2=NC3(CN2)CN2CCC3CC2)cc1 (stereo not shown) [Compound 3c] |  |  | do not demonstrate any interaction | 
c1ccc2oc(C3=NC4(CN3)CN3CCC4CC3)cc2c1 (stereo not shown) [Compound 3e, 2-Spiro[1,5-dihydroimidazole-4,3′-quinuclidine]-2-ylbenzo [b]furan] |  |  | do not demonstrate any interaction | 
Oc1c(C2=NC3(CN2)CN2CCC3CC2)oc2ccccc12 (stereo not shown) [Compound 3a, 2-(3-Hydroxybenzofuran-2-yl)spiro[1,5-dihydroimidazole-4,3′-quinuclidine]] |  |  |  | EC50 (rat α7 nAChR): 0.6 ± 0.5 µM; Emax (rat α7 nAChR): 53 ± 4.4%
5-(4-Methoxyphenyl)spiro[1,3-dihydro-1,4-diazepine-2,3′-quinuclidine]-7-ol [Compound 2d] | 0.042 µM | 42 ± 14% |  | α3β4 percent inhibition of control radioligand binding ([1]; tested at 5 μM, [3H]-epibatidine, SH-SY5Y cellular membranes, ± standard error): 63 ± 0.4%; α1βγδ percent inhibition of control radioligand binding [2]: 38 ± 5%
5-Phenylspiro[1,3-dihydro-1,4-diazepine-2,3′-quinuclidine]-7-ol [Compound 2a] | 0.14 µM | 15 ± 1% |  | 
